This note sets out measurements from US20200354348A1, “SEMISYNTHETIC AURONES AND METHODS OF USE THEREOF” (University of Kentucky Research Foundation, priority 2018, published 2020).

Broadly, the IC50 is the midpoint of a concentration-inhibition curve. High values mean a need for much substance, low ones inhibition by little substance. Usually GI50 stands for the concentration that inhibits growth by half. Read a high GI50 as less potent growth inhibition.

Molecules are shown by their SMILES. “Also recorded” adds a separate entry of the source. Bounds are passed on as bounds.

Data set [1] has as its system PC-3 cells. The data set can be described thus: Immunofluorescence imaging of tubulin networks. Type of data set: cell-based. To be noted: α-tubulin immunofluorescence. Here is the method: Tubulin networks were examined by confocal immunofluorescence imaging. Briefly, PC3 cells were placed at a density of 80,000/mL to 24-well plates equipped with round microscope glass cover slides. After culturing at 37° C. for 24 hours, DMSO or compounds were added to the cells and incubated for additional 6 hours. Then the medium was removed and the cells were washed with pbs three times. Primary anti-α-tubulin antibody was added and incubated overnight at 4° C. After additional washing, secondary TRITC-conjugated anti-rabbit antibody was added for 40 min, followed by additional washing and staining with DAPI. Final washing was performed and the cover slides were inverted onto glass slides. Images (40×) were taken using a Nikon confocal microscope with excitation at 557 nm and emission at 576 nm.

Another data set concerns PC-3 and LS174T cells. Nature of the data set: Proliferation inhibition, Table 2. Type of data set: cell-based. The note with it: Homo sapiens, read-out: inhibition at 300 nM concentrations. Here is the method: (§1) Proliferation inhibition assay. Cancer cells were seeded into 24-well plates at a density of 20,000 cells per well in 1 mL of culture medium and cultured overnight at 37° C. Compounds and the vehicle control DMSO were added to the cells. After 6 days, medium was removed and 100 μL of trypsin was added. Then the cells resuspended in pbs were counted by Vi-CELL XR 2.03 (Beckman Coulter, Inc. USA). The ratio R of the number of viable cells in the compound treatment group to the number of viable cells in DMSO treatment group was taken as relative growth, and the percentage growth inhibition was calculated as: (1−R)*100. For initial testing, compounds were added to the cells at a final concentration 10 μM. Active compounds at 10 μM would be tested at lower concentrations.

The subject of the next data set is PC-3 tumor xenografts. The data set can be described thus: PC-3 xenografts in nude mice. Type of data set: in vivo. The note with it: 10 mg/kg/day. The protocol: PC-3 cells suspended in PBS were subcutaneously injected to the lower flanks of immune-deficient nude mice at a density of 2×10^6 cells/200 ul (PBS). After tumor establishment, 4A formulated in tween80 (5%), DMSO (10%), PEG400 (25%) and PBS (60%) were administered in an intraperitoneal fashion to mice at a daily dose of 10 mg (compound)/kg (mouse). Blank vehicle was used as a control. Tumors and mouse weights were measured and tumor volumes were calculated as Length×width^2/2.

For data set [2], the system named is PC-3 cells. The data set can be described thus: Proliferation inhibition assay, PC-3. It is filed as cell-based. The note with it: Homo sapiens, PC-3, Table 2. Here is the method: Cell Culture. LS174T (colon cancer cells), PC-3 (prostate cancer cells), MCF-7 (beast) and A549 (lung) were cultured in the medium recommended by American Type Culture Collection at 37° C. with 5% CO2 atmosphere in a water jacketed incubator. Ovcar-8 and NCI/ADR-RES are gifts from Dr. Markos Leggas. Alpha-tubulin antibodies, TRITC-conjugated anti-rabbit antibody.
as §1

The subject of the next data set is NCI/ADR-RES. The data set can be described thus: NCI60 screening. It is filed as cell-based.
In data set [3] the test system is LS174T colon and PC3 prostate cancer cells. Nature of the data set: Combination with CDK inhibitor R03306, proliferation. Type of data set: cell-based.
For another data set, the system named is Molt-16. The data set can be described thus: IC50 in leukemia cell lines. Type of data set: cell-based. The note with it: Homo sapiens; Molt-16, T-ALL.
In the next data set the test system is NCI-H226. Nature of the data set: NCI60 screening. Type of data set: cell-based. The note with it: Homo sapiens, Non-Small Cell Lung Cancer.
Another data set relates to REH. Nature of the data set: IC50 in leukemia cell lines. It is filed as cell-based. The note with it: Homo sapiens, B-ALL.
The test system of a further data set is Myc-induced T-ALL. Nature of the data set: Anti-leukemia activity in the zebrafish model. It is filed as in vivo. Here is the method:
Rag2:Myc-GFP zebrafish at 21 days of age were treated with DMSO, Aurone 4a, or 4r in 1.5 mL fish system water in 12-well plates. Zebrafish were treated with compound for 2 days, removed from drug for 1 day, and treated for two more days in fresh compound. Animals were imaged at the start and end of treatment using a fluorescence-equipped dissecting microscope at 350 ms exposure. The GFP image was overlaid onto the bright-field image of each animal in Photoshop, and the percent change in leukemia burden was calculated by normalizing the GFP+ area to the total area of the animal in ImageJ.

The subject of a further data set is tubulin. Nature of the data set: In vitro tubulin polymerization assay. To be noted: 5 μM. Type of data set: biochemical. The protocol: In vitro tubulin polymerization assay. The in vitro tubulin polymerization assay was performed by referring tubulin manufacturer's protocol. Briefly, tubulin powder (Cytoskeleton Inc. USA) was dissolved in cold buffer [100 mM PIPES (pH 6.9), 2 mM MgCl2, 1 mM GTP, and 5% glycerol] on ice. Then aliquots (80 μL, 3.75 μg/μL) of the obtained tubulin solution were divided into the wells of a 96-well half-area plate (Corning, USA). After adding DMSO or testing compounds, the plate was mounted to a Spectra MR™ microplate spectrophotometer equipped with a thermal controller allowing to adjust the temperature to 37° C. (DYNEX Technologies Limited, USA). Readings at 350 nm were recorded every 30 s for 1 hour.

In the next data set the test system is Loucy. Nature of the data set: IC50 in leukemia cell lines. To be noted: T-ALL. Type of data set: cell-based.
The test system of the next data set is HBP-ALL. Nature of the data set: IC50 in leukemia cell lines. Type of data set: cell-based. The note with it: T-ALL.
A further data set relates to A498. Nature of the data set: NCI60 screening. It is filed as cell-based. To be noted: Homo sapiens, Renal Cancer.
A further data set has as its system DND41. The data set can be described thus: IC50 in leukemia cell lines. It is filed as cell-based. To be noted: DND41, T-ALL.
A further data set has as its system HCC-2998. Nature of the data set: NCI60 screening. It is filed as cell-based. The note with it: Homo sapiens, Colon Cancer.
The next data set relates to SK-MEL-28. Nature of the data set: NCI60 screening. Type of data set: cell-based. To be noted: Homo sapiens, Melanoma.
A further data set deals with HCC1007-BL. Nature of the data set: IC50 in leukemia cell lines. It is filed as cell-based. The note with it: Normal B-Lymphoblast.

Turning to `CCn1cc(/C=C2\Oc3cc(OCC#N)ccc3C2=O)c2cc(OC)ccc21` [Aurone 4a, (Z)-2-((2-((1-Ethyl-5-methoxy-1H-indol-3-yl)methylene)-3-oxo-2,3-dihydrobenzofuran-6-yl)oxy)acetonitrile], in the data set on PC-3 cells [1], the microtubule structures entry is on record as “inhibited microtubule structures”. The inhibition at 0.3 µM in the data set with PC-3 and LS174T cells was over 90%; in the data set with PC-3 cells [2] (300 nM) it was 93 ± 2.8%. For the same compound, the “gross toxicity / body weights of treated mice” value with PC-3 tumor xenografts was “without significant effects on body weights; also recorded: no apparent gross toxicity; also recorded: no general toxicity”. For the same compound, in the data set with PC-3 tumor xenografts (intraperitoneal), the “in vivo tumor inhibitory effect” value was “inhibited PC-3 tumor xenografts; also recorded: significant, tumor-growth suppression”. The same compound displayed an inhibition at 0.1 µM in the data set with PC-3 cells [2] (100 nM) of 58 ± 11%. This compound displayed an inhibition at 1 µM in the data set on PC-3 cells [2] (1 μM) of 95 ± 2.5%. Besides, the “cytotoxicity against multidrug-resistant cell line” value with NCI/ADR-RES (NCI/ADR-RES) is listed as “potent cytotoxicity”. Besides, in the data set with NCI/ADR-RES (inferred from NCI/ADR-RES cells expressing P-glycoprotein), the “substrate of P-glycoprotein” value is “not likely a substrate of P-glycoprotein”. Moreover, the “combination effect with R03306 on proliferation” value in data set [3] is given as “synergistic effects”. Also, the IC50 with Molt-16 was 234 nM; with REH, 287 nM; in the data set with Loucy, 334 nM; in the data set with HBP-ALL, 94 nM; in the data set with DND41, 210 nM; with HCC1007-BL, 1380 nM. Moreover, the GI50 in the data set with NCI-H226 is 57400 nM; in the data set with A498 it was 10300 nM; in the data set on HCC-2998, 3440 nM; with SK-MEL-28, 10200 nM. The “gross toxicity on zebrafish” value with Myc-induced T-ALL was “no gross toxicity was observed”. Further, the “inhibition of Myc-induced T-ALL” value in the data set with Myc-induced T-ALL (5 days) is reported as “blocked the progress of T-ALL; also recorded: significant inhibition of Myc-induced T-ALL”. The “decrease in leukemia burden” value in the data set on Myc-induced T-ALL (percent change over treatment, p=0.0011 vs DMSO) was 45.58%. Further, in the data set on tubulin, the “tubulin polymerization in vitro” value is on record as “inhibits tubulin polymerization”.
